Measurements reported in paper PMC1930153, “Engineering the Melanocortin-4 Receptor to Control Constitutive and Ligand-Mediated Gs Signaling In Vivo” (PLoS ONE, 2007).

What was measured:
Format in all cases: cell-based
wild-type MC4R [1] = target: T1, wild-type MC4R (Homo sapiens, UniProt P32245); assay: Receptor internalization (cell-surface FLAG ELISA), HEK293 cells stably expressing wild-type MC4R; conditions: WT MC4R, 2-h exposure
T1 construct: prolactin signal peptide (N); expressed in transfected cells; host or cells: HEK293
Method: (§1) HEK293 cells were maintained in Dulbecco's modified Eagle's medium supplemented with 10% fetal bovine serum containing L-glutamine. Wild-type and mutant MC4R were transfected into HEK 293 cells with Lipofectamine (Invitrogen). For the internalization assays, stable cell lines expressing wild-type or RASSL-MC4R were generated by G418-mediated selection (10 µg/ml) of clones expressing the neomycin-resistance gene cotransfected with MC4R. Stable cell lines were maintained by selection with 5 µg/ml G418.
(§2) Cell-surface expression of receptors was measured with an enzyme-linked immunosorbent assay (ELISA) that detects the extracellular FLAG tag. Transiently transfected cells were plated at 1×10^5/well into 96-well plates coated with poly-D-lysine (Sigma). […] Forty-eight h after transfection, cells were fixed in 4% paraformaldehyde (Sigma) for 10 min at 4°C. After two washes in phosphate-buffered saline, the cells were incubated in 1 µg/ml M1 anti-FLAG antibody (Sigma) for 2 h at room temperature, washed twice in phosphate-buffered saline, and incubated for 1 h at room temperature with horseradish peroxidase–conjugated goat-anti-mouse (1∶1000, BioRad, Chicago, IL). […] After 15–60 min, the optical density was read at 405 nm in a spectrophotometer. […]

MC4R S127L = target: T2, MC4R S127L (Homo sapiens, UniProt P32245, S127L); assay: cAMP assay, S127L MC4R mutant in HEK293 cells
T2 construct: prolactin signal peptide (N); green fluorescent protein (N); expressed in transfected cells; host or cells: HEK293
Method: as §1
(§3) cAMP production was measured with an ultra sensitive enzymatic cAMP assay (CatchPoint, Molecular Devices, Sunnyvale, CA). Transiently transfected cells were plated at 1×10^5/well into 96-well plates coated with poly-D-lysine (Sigma). Forty-eight h after transfection, cells were rinsed in Krebs-Ringer bicarbonate buffer containing glucose (Sigma) and incubated in pre-stimulation buffer containing 0.75 mM 3-isobutyl-1-methylxanthine in the same buffer for 10 min at room temperature. […] The cells were lysed, and cAMP accumulation was measured according to the CatchPoint protocol. cAMP generated under the different experimental conditions was interpolated from a cAMP standard curve for each experiment. […] Emax and EC50 values were calculated with SoftMax Pro. cAMP measurements were performed on transiently transfected cells.

MC4R G98R = target: T3, MC4R G98R (Homo sapiens, UniProt P32245, G98R); assay: cAMP assay, G98R MC4R mutant in HEK293 cells
T3 construct: prolactin signal peptide (N); green fluorescent protein (N); expressed in transfected cells; host or cells: HEK293
Method: as §1, §3

L106P-MC4R (Rm1) = target: T4, L106P-MC4R (Rm1) (Homo sapiens, UniProt P32245, L106P); assay: cAMP assay, L106P MC4R (Rm1) in HEK293 cells
T4 construct: prolactin signal peptide (N); green fluorescent protein (N); expressed in transfected cells; host or cells: HEK293
Method: as §1, with “Wild-type and mutant MC4R were transfected into HEK 293 cells with Lipofectamine (Invitrogen).” left out
(§4) cAMP production was measured with an ultra sensitive enzymatic cAMP assay (CatchPoint, Molecular Devices, Sunnyvale, CA). Transiently transfected cells were plated at 1×10^5/well into 96-well plates coated with poly-D-lysine (Sigma). Forty-eight h after transfection, cells were rinsed in Krebs-Ringer bicarbonate buffer containing glucose (Sigma) and incubated in pre-stimulation buffer containing 0.75 mM 3-isobutyl-1-methylxanthine in the same buffer for 10 min at room temperature. […] The cells were lysed, and cAMP accumulation was measured according to the CatchPoint protocol. cAMP generated under the different experimental conditions was interpolated from a cAMP standard curve for each experiment. Four replicates were used for each condition, and all experiments were repeated at least three times. Emax and EC50 values were calculated with SoftMax Pro. cAMP measurements were performed on transiently transfected cells.

MC4R I102S = target: T5, MC4R I102S (Homo sapiens, UniProt P32245, I102S); assay: cAMP assay, I102S MC4R mutant in HEK293 cells
T5 construct: prolactin signal peptide (N); green fluorescent protein (N); expressed in transfected cells; host or cells: HEK293
Method: as §1, §3

MC4R D126A = target: T6, MC4R D126A (Homo sapiens, UniProt P32245, D126A); assay: cAMP assay, D126A MC4R mutant in HEK293 cells
T6 construct: prolactin signal peptide (N); green fluorescent protein (N); expressed in transfected cells; host or cells: HEK293
Method: as §1, §3

Rm2 (D122A) = target: T7, Rm2 (D122A) (Homo sapiens, UniProt P32245, D122A); assay: Receptor internalization (cell-surface FLAG ELISA), HEK293 cells stably expressing Rm2
T7 construct: prolactin signal peptide (N); green fluorescent protein (N); expressed in transfected cells; host or cells: HEK293
Method: as §1, §2

MC4R E100A = target: T8, MC4R E100A (Homo sapiens, UniProt P32245, E100A); assay: cAMP assay, E100A MC4R mutant in HEK293 cells
T8 construct: prolactin signal peptide (N); green fluorescent protein (N); expressed in transfected cells; host or cells: HEK293
Method: as §1, §3

D122A-MC4R (Rm2) = target: T9, D122A-MC4R (Rm2) (Homo sapiens, UniProt P32245, D122A); assay: cAMP assay, D122A MC4R (Rm2) in HEK293 cells
T9 construct: prolactin signal peptide (N); green fluorescent protein (N); expressed in transfected cells; host or cells: HEK293
Method: as §1, with “Wild-type and mutant MC4R were transfected into HEK 293 cells with Lipofectamine (Invitrogen).” left out
as §4

MC4R N97D = target: T10, MC4R N97D (Homo sapiens, UniProt P32245, N97D); assay: cAMP assay, N97D MC4R mutant in HEK293 cells
T10 construct: prolactin signal peptide (N); green fluorescent protein (N); expressed in transfected cells; host or cells: HEK293
Method: as §1, §3

Rm1 (L106P) = target: T11, Rm1 (L106P) (Homo sapiens, UniProt P32245, L106P); assay: Receptor internalization (cell-surface FLAG ELISA), HEK293 cells stably expressing Rm1
T11 construct: prolactin signal peptide (N); green fluorescent protein (N); expressed in transfected cells; host or cells: HEK293
Method: as §1, §2

wild-type MC4R [2] = target: T1, wild-type MC4R; assay: cAMP assay, wild-type MC4R in transiently transfected HEK293 cells
Method: as §1, with “Wild-type and mutant MC4R were transfected into HEK 293 cells with Lipofectamine (Invitrogen).” left out
as §4

wild-type MC4R [3] = target: T1, wild-type MC4R; assay: Cell-surface expression ELISA, transiently transfected HEK293 cells, wild-type MC4R; conditions: WT MC4R, transient transfection; α-MSH 1 µM
Method: as §1, §2

**Q.** Which “Internalization in words (time course)” value (wild-type MC4R [1]; 1 µM ligand) does the source give for O=C(N[C@H](Cc1ccc(Cl)cc1)C(=O)N1CCC(Cn2cncn2)(C2CCCCC2)CC1)[C@H]1Cc2ccccc2CN1 (relative stereo) [THIQ] here?
**A.** did not result in internalization

**Q.** And the “Receptor sequestration in words” value (wild-type MC4R [1]; increasing concentrations)?
**A.** did not cause sequestration

**Q.** And the “Emax (% of WT)” value (MC4R S127L)?
**A.** 21.7±3.5 % of WT

**Q.** What about the “Emax (% of WT)” value (MC4R G98R) of the same molecule?
**A.** 2.6±0.6 % of WT

**Q.** And the “Emax (% of WT)” value (L106P-MC4R (Rm1); cAMP, L106P (Rm1))?
**A.** 73.4±14.8 % of WT

**Q.** And the “Emax (% of WT)” value (MC4R I102S)?
**A.** 49.2±2.2 % of WT

**Q.** And the “Emax (% of WT)” value (MC4R D126A)?
**A.** 50.7±3.6 % of WT

**Q.** And the “Decrease in cell-surface expression” value (Rm2 (D122A); Rm2, 1 µM ligand)?
**A.** about 20%

**Q.** What about the “Receptor sequestration/internalization in words” value (Rm2 (D122A); Rm2, 2-h exposure, increasing concentrations) of the same molecule?
**A.** did not cause sequestration

**Q.** What about the “Emax (% of WT)” value (MC4R E100A) of the same molecule?
**A.** 44.54±4.9 % of WT

**Q.** And the “Emax (% of WT)” value (D122A-MC4R (Rm2); cAMP, D122A (Rm2))?
**A.** 90.3±6.2 % of WT

**Q.** And the “Emax (% of WT)” value (MC4R N97D)?
**A.** 43.1±3.1 % of WT

**Q.** What about the “Internalization in words (time course)” value (Rm1 (L106P); Rm1, 1 µM ligand, 2-h exposure) of the same molecule?
**A.** did not internalize

**Q.** What about the “Receptor sequestration/internalization in words” value (Rm1 (L106P); Rm1, 2-h exposure, increasing concentrations) of the same molecule?
**A.** did not cause sequestration

**Q.** What about the “Emax (% of WT)” value (wild-type MC4R [2]; cAMP, 2 h stimulation) of the same molecule?
**A.** 100 % of WT

**Q.** How did the “Activation (cAMP release) in words” value (L106P-MC4R (Rm1); Rm1, increasing concentrations) turn out when CSCC[C@H](NC(=O)[C@H](CCCNC(=N)N)NC(=O)[C@H](Cc1ccc(O)cc1)NC(=O)[C@@H]1CCCN1C(=O)CNC(=O)[C@H](CCC(=O)O)NC(=O)[C@H](CC(=O)O)NC(=O)[C@H](CCCCN)NC(=O)[C@H](CCCCN)NC(=O)[C@H](CCC(=O)O)NC(=O)[C@H](C)N)C(=O)N[C@@H](CCC(=O)O)C(=O)N[C@@H](Cc1c[nH]cn1)C(=O)N[C@@H](Cc1ccccc1)C(=O)N[C@@H](CCCNC(=N)N)C(=O)N[C@@H](Cc1c[nH]c2ccccc12)C(=O)NCC(=O)N[C@@H](CO)C(=O)N1CCC[C@H]1C(=O)N1CCC[C@H]1C(=O)N[C@@H](CCCCN)C(=O)N[C@@H](CC(=O)O)C(=O)O [β-MSH] was run?
**A.** no activation

**Q.** And the “Activation (cAMP release) in words” value (D122A-MC4R (Rm2); Rm2, increasing concentrations)?
**A.** no activation

**Q.** And the “Activation (cAMP release) in words” value (wild-type MC4R [2]; WT MC4R, increasing concentrations)?
**A.** full activation

**Q.** “agouti-related peptide (SSRRCVRLHESCLGQQVPCCDPCATCYCRFFNAFCYCRKLGTAMNPCSRT; UniProt O00253 83-132, looked up) [AGRP]” was tested. Which “Effect on cell-surface expression in words” value (wild-type MC4R [3]) did it give?
**A.** stabilized receptor expression on the cell surface

**Q.** And the “Antagonism when co-administered with THIQ” value (L106P-MC4R (Rm1); Rm1, cAMP)?
**A.** full antagonist
